In PubChem BioAssay (NCI):
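Dose response: 5 concentrations. Exposure: 48 h. Format: 96-well plates. Endpoint: linear interpolation; highest concentration if not reached. GI50 is the concentration that inhibits growth by half. The concentration for full growth arrest is given as TGI.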

How the values were obtained:
Test in all cases: DTP human tumour cell line panel, 48 h
ACHN renal = test system: ACHN renal
MDA-MB-231 breast = test system: MDA-MB-231 breast
DU-145 prostate = test system: DU-145 prostate
LOX IMVI melanoma = test system: LOX IMVI melanoma
KM12 colon = test system: KM12 colon
HCT-15 colon = test system: HCT-15 colon
M14 melanoma = test system: M14 melanoma
OVCAR-4 ovarian = test system: OVCAR-4 ovarian
SK-MEL-28 melanoma = test system: SK-MEL-28 melanoma
SN12C renal = test system: SN12C renal

Row | SMILES | GI50 (ACHN renal) | TGI (ACHN renal) | GI50 (MDA-MB-231 breast) | TGI (MDA-MB-231 breast) | GI50 (DU-145 prostate) | TGI (DU-145 prostate) | TGI (LOX IMVI melanoma) | TGI (KM12 colon) | TGI (HCT-15 colon) | TGI (M14 melanoma) | TGI (OVCAR-4 ovarian) | TGI (SK-MEL-28 melanoma) | TGI (SN12C renal) | GI50 (LOX IMVI melanoma) | GI50 (KM12 colon) | GI50 (HCT-15 colon) | GI50 (M14 melanoma) | GI50 (OVCAR-4 ovarian) | GI50 (SK-MEL-28 melanoma) | GI50 (SN12C renal)
1 | COc1ccc2c(c1)c(-c1nc(-c3c[nH]c4ncccc34)cs1)cn2CCCCN1CCCCC1 | 1660 nM | 3.04 µM | 1.61 µM | 3.08 µM | 1.73 µM | 3.22 µM | – | – | – | – | – | – | – | – | – | – | – | – | – | –
2 | CCC(=O)OCN(C)c1nc(N(C)COC(=O)CC)nc(N(C)COC(=O)CC)n1 | – | – | – | > 100 µM | – | > 100 µM | 70.3 µM | > 100 µM | 56 µM | 77.3 µM | > 100 µM | > 100 µM | > 100 µM | – | – | – | – | – | – | –
3 | O=C1c2ccccc2OCC12OC21C=CC(Cl)=CC1 (centres undefined) | – | > 100 µM | – | 50.9 µM | – | 38.6 µM | 30.4 µM | 41.9 µM | 86.5 µM | > 100 µM | 46.4 µM | 67.4 µM | 35.3 µM | – | – | – | – | – | – | –
4 | N[C@H](Cc1ccc2oc3cc(=O)c4ccccc4c-3nc2c1)C(=O)O | – | > 100 µM | – | > 100 µM | – | 51.7 µM | > 100 µM | > 100 µM | > 100 µM | 39.9 µM | > 100 µM | > 100 µM | > 100 µM | – | – | – | – | – | – | –
5 | COC(=O)C1=C(OC)[C@H]2C#C/C=C\C#C[C@@H]3Nc4c(cc(O)c5c4C(=O)c4ccccc4C5=O)[C@]24O[C@@]34[C@H]1C | – | < 0.01 µM | – | 0.0179 µM | – | < 0.01 µM | < 0.01 µM | 0.0475 µM | 0.0147 µM | < 0.01 µM | 0.2 µM | – | < 0.01 µM | – | – | – | – | – | – | –
6 | Cc1nc2ccc(S(=O)(=O)Nc3nccs3)cc2c(=O)n1NS(=O)(=O)c1nccs1 | – | > 100 µM | – | > 100 µM | – | > 100 µM | – | > 100 µM | > 100 µM | > 100 µM | > 100 µM | > 100 µM | > 100 µM | – | – | – | – | – | – | –
7 | O=C(CBr)c1ccc2cc(Br)c3ccccc3c2c1 | – | > 100 µM | – | 51.2 µM | – | 46.4 µM | > 100 µM | 44.1 µM | > 100 µM | 84 µM | 58.9 µM | 57.5 µM | – | – | – | – | – | – | – | –
8 | CCCCC1C=Cn2c(=O)oc3c(OC(C)C)c(C)c(O)c1c32 (centres undefined) | – | 3.35 µM | – | 4.87 µM | – | 5.5 µM | 5.52 µM | 8.26 µM | 12.4 µM | 3.15 µM | 2.37 µM | 8.33 µM | 3.71 µM | – | – | – | – | – | – | –
9 | O=C(N[C@@H](Cc1coc2ccccc12)B(O)O)[C@@H]1C[C@H]2CC[C@@H]1O2 | 1930 nM | > 100 µM | 11.7 µM | > 100 µM | 7.5 µM | > 100 µM | 34.5 µM | 57.9 µM | 84.9 µM | 82.7 µM | > 100 µM | > 100 µM | > 100 µM | 5.21 µM | 11.4 µM | 4.54 µM | 3.01 µM | 7.36 µM | 4.5 µM | 9.24 µM
10 | C(=Nc1ccc2c(c1)Cc1ccccc1-2)c1ccccn1 | – | > 100 µM | – | > 100 µM | – | > 100 µM | > 100 µM | > 100 µM | > 100 µM | > 100 µM | > 100 µM | > 100 µM | 90.3 µM | – | – | – | – | – | – | –
11 | CN(C)CCCNc1ccc2ncn3c4ccc(O)cc4c(=O)c1c23 | – | 4.04 µM | – | 21.7 µM | – | 21.2 µM | 3.13 µM | 16.7 µM | 16.8 µM | 16.4 µM | 8.01 µM | 18.1 µM | 16.2 µM | – | – | – | – | – | – | –
12 | CCCn1cnc2c(SCc3ccc(Cl)cc3)nc(N)nc21 | – | 33.8 µM | – | 60.1 µM | – | > 100 µM | 50.8 µM | 58.9 µM | > 100 µM | 81.5 µM | > 100 µM | 83.4 µM | 83.3 µM | – | – | – | – | – | – | –
13 | CCCO[C@@H]1[C@@H](OC(C)=O)[C@@H](OC(C)=O)C(C)(C)/C=C/[C@H](C)C(=O)[C@@]2(OC(C)=O)C[C@@](C)(OC(C)=O)[C@H](OC(C)=O)[C@@H]2[C@H]2OC(=O)CC[C@@]12OC(=O)c1ccccc1 | – | > 25 µM | – | > 25 µM | – | > 25 µM | > 25 µM | > 25 µM | > 25 µM | > 25 µM | > 25 µM | – | > 25 µM | – | – | – | – | – | – | –
14 | O=c1cc(CF)[nH]c(=S)[nH]1 | – | > 100 µM | – | > 100 µM | – | > 100 µM | > 100 µM | > 100 µM | > 100 µM | > 100 µM | > 100 µM | > 100 µM | > 100 µM | – | – | – | – | – | – | –
15 | C=CCCC1(C)CCCNC1=S (centres undefined) | – | > 100 µM | – | – | – | – | > 100 µM | > 100 µM | > 100 µM | > 100 µM | > 100 µM | > 100 µM | > 100 µM | – | – | – | – | – | – | –
16 | CNC(C)C(O)c1ccc2oc3cc(=O)c4ccccc4c-3nc2c1 (centres undefined) | – | 57.9 µM | – | > 100 µM | – | 18 µM | 26.7 µM | 49.8 µM | > 100 µM | 16.1 µM | 36.6 µM | 27.6 µM | 25.1 µM | – | – | – | – | – | – | –
17 | COc1ccc(C2COc3c(ccc(O)c3C)C2)cc1OC (centres undefined) | – | – | – | – | – | – | 128 µM | > 200 µM | > 200 µM | – | > 200 µM | > 196 µM | > 200 µM | – | – | – | – | – | – | –
18 | CCOC(=O)c1sc2nc(SC)nc(Nc3ccc4c(c3)OCCO4)c2c1N | – | 19.8 µM | – | 25.9 µM | – | 33.5 µM | > 100 µM | 78.5 µM | – | 31.7 µM | 30.8 µM | > 100 µM | 29.9 µM | – | – | – | – | – | – | –
19 | C/C(=N\NC(=S)N1CCCC1)c1nc2ncccc2[nH]1 | – | 11.4 µM | – | > 100 µM | – | 13.1 µM | 13.1 µM | 23.8 µM | > 100 µM | 31.3 µM | 18.6 µM | 28.2 µM | > 100 µM | – | – | – | – | – | – | –
